How the values were obtained:
[1] = Serum fatty acid profile (% serum fatty acids, GC/MS), feeding study; type: in vivo, bottlenose dolphin (Tursiops truncatus)
Protocol: The dolphins started on a 100% capelin diet.
Changes in percent serum for the targeted fatty acids (C17:0, C20:4n6, and C22:0), as well as insulin, glucose, triglycerides, iron, transferrin saturation, and ferritin, were assessed among feeding study dolphins during weeks 3, 6, 12, 18 and 24 and compared to week 0 using pairwise comparison t-tests. Erythrocyte membrane fatty acids were measured during weeks 3, 6, 12, 18, and 24. Serum ferritin in Group A dolphins increased.
Blood was collected into BD Vacutainer serum separator tubes (for insulin, iron, ferritin, serum fatty acids profile, and serum chemistry), EDTA BD Vacutainer blood collection tubes (for erythrocyte fatty acid profile), and Lithium Heparin BD Vacutainer blood collection tubes (for plasma chemistry, including triglycerides). Blood tubes were centrifuged at 3000 rpm for 10 minutes within 30-60 minutes of collection and chilled during processing until shipment. Remaining serum/plasma was transferred to cryovials and stored at −80° C. until shipment on dry ice via overnight courier to the reference laboratories.
Serum and red blood cell membrane fatty acid profiles were performed by the Genetics Laboratories at the Kennedy Krieger Institute. Fatty acids were analyzed by capillary gas chromatography/mass spectrometry of pentaflourobenzyl bromide fatty acid derivatives using an AT-Silar-100 column (Grace, Columbia, Md. 21044) as previously described. For red blood cells only, the lipids were extracted with hexane:isopropanol before analysis. Each run was required to pass clinical laboratory quality control before the data were released. CV % were typically under 10%. Percent fatty acids in serum was used as a sturdier index to help reduce potential variability in serum among study dolphins. Iron, TIBC, and ferritin were analyzed at the Kansas State Veterinary Diagnostic Laboratory by colorimetric analysis on the Roche Cobas Mira (Roche Diagnostics, Indianapolis, Ind. 46250) per the manufacturer's protocol. Plasma triglycerides and glucose were directly measured using the Roche Cobas 8000 system (Roche Diagnostics, Indianapolis, Ind. 46250) per the manufacturers' protocol. Glucose was measured photometrically at the Animal Health Diagnostic Center at Cornell University on the Roche Diagnostics Modular Analytics P Module clinical chemistry analyzer (Roche Diagnostics, Indianapolis, Ind. 46250). Total insulin was analyzed at ARUP Laboratories by ultrafiltration/quantitative chemiluminescent immunoassay on the Siemens ADVIA Centaur Immunoassay system (Siemens Medical Solutions USA, Inc., Malvern, Pa. 19355).

[2] = Serum fatty acid metabolomics (UPLC-MS/MS), feeding study
Protocol: This study examined global metabolic profiles in six dolphins (“Group A dolphins”). The dolphins lived in netted enclosures within San Diego Bay. The dolphins started on a 100% capelin diet. Group A dolphins were fed one-third of their daily diet in the morning after their routine overnight fast and 2h postprandial, in-water, and trained blood samples were drawn (typically near 10:00 a.m.). An additional four dolphins (“Group C dolphins”) were fed the capelin diet.
Two hour post-prandial samples were collected from the dolphins at baseline (week 0) and at four time points following the switch to the modified diet: 6, 12, 18, and 24 weeks. Routine monthly samples collected from four reference dolphins that were housed in the same environment as the Group A dolphins were assessed for glucose, triglycerides, ferritin, and percent serum fatty acids.
Sample Preparation: Samples were prepared using the automated MicroLab STAR® system from Hamilton Company. Several recovery standards were added prior to the first step in the extraction process for QC purposes. Proteins were precipitated with methanol under vigorous shaking for 2 min (Glen Mills GenoGrinder 2000) followed by centrifugation. The resulting extract was divided into five fractions: two for analysis by two separate reverse phase (RP)/UPLC-MS/MS methods with positive ion mode electrospray ionization (ESI), one for analysis by RP/UPLC-MS/MS with negative ion mode ESI, one for analysis by HILIC/UPLC-MS/MS with negative ion mode ESI, and one sample was reserved. Samples were placed briefly on a TurboVap® (Zymark) to remove the organic solvent. The sample extracts were stored overnight under nitrogen before preparation for analysis.
Ultrahigh Performance Liquid Chromatography-Tandem Mass Spectroscopy (UPLC-MS/[…]): Each of four methods utilized a Waters ACQUITY ultra-performance liquid chromatography (UPLC) and a Thermo Scientific Q-Exactive high resolution/accurate mass spectrometer interfaced with a heated electrospray ionization (HESI-II) source and Orbitrap mass analyzer operated at 35,000 mass resolution. A sample extract was dried, then reconstituted in solvents compatible to each of the four methods. Each reconstitution solvent contained a series of standards at fixed concentrations to ensure injection and chromatographic consistency. A first aliquot was analyzed using acidic positive ion conditions, chromatographically optimized for more hydrophilic compounds. In this method, the extract was gradient eluted from a C18 column (Waters UPLC BEH C18-2. 1×100 mm, 1.7 μm) using water and methanol, containing 0.05% perfluoropentanoic acid (PFPA) and 0.1% formic acid (FA). A second aliquot was also analyzed using acidic positive ion conditions, however it was chromatographically optimized for more hydrophobic compounds. In this method, the extract was gradient eluted from the same afore mentioned C18 column using methanol, acetonitrile, water, 0.05% PFPA and 0.01% FA and was operated at an overall higher organic content. A third aliquot was analyzed using basic negative ion optimized conditions using a separate dedicated C 18 column. The basic extracts were gradient eluted from the column using methanol and water, however with 6.5 mM Ammonium Bicarbonate at pH 8. […] The MS analysis alternated between MS and data-dependent MSn scans using dynamic exclusion. The scan range varied slighted between methods but covered 70-1000 m/z.
Data Extraction and Compound Identification: Raw data was extracted, peak-identified and QC processed using Metabolon's hardware and software. The systems were based on a web-service platform utilizing Microsoft's .NET technologies, which ran on high-performance application servers and fiber-channel storage arrays in clusters to provide active failover and load-balancing. Compounds were identified by comparison to library entries of purified standards or recurrent unknown entities.

[3] = Group A dolphins, modified diet, proportional to value at outset of study
[4] = bottlenose dolphin (Tursiops truncatus), in vivo, 3 weeks
[5] = bottlenose dolphin (Tursiops truncatus), in vivo, 6 weeks
[6] = bottlenose dolphin (Tursiops truncatus), in vivo, 12 weeks
[7] = bottlenose dolphin (Tursiops truncatus), in vivo, 18 weeks
[8] = bottlenose dolphin (Tursiops truncatus), in vivo, 24 weeks

Structure (SMILES): CCCCCCCCCCCCCCCCCCCCCC(=O)O [Behenic acid]
- Serum fatty acids (%) ([1]; Group A dolphins, modified diet, week 3): 0.21 ± 0.06%
- Serum fatty acids (%) ([1]; Group A dolphins, modified diet, week 6): 0.25 ± 0.07%
- Serum fatty acids (%) ([1]; Group A dolphins, modified diet, week 12): 0.28 ± 0.06%
- Serum fatty acids (%) ([1]; Group A dolphins, modified diet, week 18): 0.26 ± 0.04%
- Serum fatty acids (%) ([1]; Group A dolphins, modified diet, week 24): 0.29 ± 0.04%

Structure (SMILES): CCCCCCCCCCCCCCCCC(=O)O [Heptadecanoic acid, heptadecanoic acid]
- serum concentration 6 wk / 0 wk [2, 3]: 1.25
- serum concentration 12 wk / 0 wk [2, 3]: 1.65
- serum concentration 18 wk / 0 wk [2, 3]: 1.72
- serum concentration 24 wk / 0 wk [2, 3]: 1.21
- Serum fatty acids (%) [1, 4]: 0.5 ± 0.2%
- Serum fatty acids (%) [1, 5]: 0.5 ± 0.1%
- Serum fatty acids (%) [1, 6]: 0.7 ± 0.3%
- Serum fatty acids (%) [1, 7]: 0.8 ± 0.4%
- Serum fatty acids (%) [1, 8]: 0.7 ± 0.2%
- serum levels compared to week 0 ([1]; in vivo): higher

Structure (SMILES): CCCCC/C=C\C/C=C\C/C=C\C/C=C\CCCC(=O)O [Arachidonic acid, (5Z,8Z,11Z,14Z)-icosa-5,8,11,14-tetraenoic acid]
- serum concentration 6 wk / 0 wk [2, 5]: 1.19
- serum concentration 12 wk / 0 wk [2, 6]: 1.62
- serum concentration 18 wk / 0 wk [2, 7]: 1.5
- serum concentration 24 wk / 0 wk [2, 8]: 1.19
- Serum fatty acids (%) [1, 4]: 6 ± 2%
- Serum fatty acids (%) [1, 5]: 7 ± 2%
- Serum fatty acids (%) [1, 6]: 10 ± 4%
- Serum fatty acids (%) [1, 7]: 10 ± 3%
- Serum fatty acids (%) [1, 8]: 10 ± 3%

Source: US11116740B2, “Methods for use in support of planned supplement and food ingredient products for diagnosis and treatment of metabolic syndrome” (priority 2015, dated 2021)
